From patent publication US20230111310A1, “CARBOXYLIC ACID DERIVATIVE-SUBSTITUTED IMINO ARYL COMPOUND, PREPARATION METHOD THEREFOR, HERBICIDAL COMPOSITION AND USE THEREOF” (Qingdao Kingagroot Chemical Compound Co., Ltd., priority 2020, published 2023)
Like-named read-outs stand apart in the source and are kept apart here.

Assays:
Type in all cases: in vivo
[1] = tested on: Setaria viridis; test: Weeding effect in post-emergence stage; conditions: Dose 15 g/ha; fresh weight control rate level
Procedure, shortened: (§1)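 Weeds were treated post-emergence at 2-3 leaves with compound doses from 7.5 up to 500 g/ha, formulated in acetone–Tween 80 with methyl oleate synergist. Efficacy was assessed as growth control after 3 weeks.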

[2] = tested on: Abutilon theophrasti; test: Weeding effect in post-emergence stage; conditions: Dose 15 g/ha; fresh weight control rate level
Procedure, shortened: as §1

[3] = tested on: Alopecurus japonicus; test: Weeding effect in post-emergence stage; conditions: Dose 15 g/ha; fresh weight control rate level
Procedure, shortened: as §1

[4] = tested on: Digitaria sanguinalis; test: Weeding effect in post-emergence stage; conditions: Dose 15 g/ha; fresh weight control rate level
Procedure, shortened: as §1

[5] = tested on: Eleusine indica; test: Weeding effect in post-emergence stage; conditions: Dose 15 g/ha; fresh weight control rate level
Procedure, shortened: as §1

[6] = tested on: Peanut; test: Pre-emergence stage, crop selectivity; conditions: 30 g/ha, 4 weeks
Procedure, shortened: (§2)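 Test compounds were dissolved in acetone with tween 80, diluted with water and sprayed right after sowing, with seeds covered by 0.5-2 cm of soil. Rates were 500 to 7.5 g/ha. Growth control was scored against activity-level criteria after 4 weeks in the greenhouse.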

[7] = tested on: Soybeans; test: Pre-emergence stage, crop selectivity; conditions: 30 g/ha, 4 weeks
Procedure, shortened: as §2

[8] = tested on: corn; test: Pre-emergence stage, crop selectivity; conditions: 30 g/ha, 4 weeks
Procedure, shortened: as §2

[9] = tested on: cotton; test: Pre-emergence stage, crop selectivity; conditions: 30 g/ha, 4 weeks
Procedure, shortened: as §2

[10] = tested on: Setaria viridis; test: Weeding effect in pre-emergence stage; conditions: 30 g/ha, 4 weeks
Procedure, shortened: as §2

[11] = tested on: Abutilon theophrasti; test: Weeding effect in pre-emergence stage; conditions: 30 g/ha, 4 weeks
Procedure, shortened: as §2

[12] = tested on: Amaranthus retroflexus; test: Weeding effect in pre-emergence stage; conditions: 30 g/ha, 4 weeks
Procedure, shortened: as §2

[13] = tested on: Descurainia sophia; test: Weeding effect in pre-emergence stage; conditions: 30 g/ha, 4 weeks
Procedure, shortened: as §2

[14] = tested on: Veronica didyma Tenore; test: Weeding effect in pre-emergence stage; conditions: 30 g/ha, 4 weeks
Procedure, shortened: as §2

[15] = tested on: Capsella bursa-pastoris; test: Weeding effect in pre-emergence stage; conditions: 30 g/ha, 4 weeks
Procedure, shortened: as §2

[16] = tested on: Echinochloa crusgalli; test: Weeding effect in post-emergence stage; conditions: Dose 15 g/ha; fresh weight control rate level
Procedure, shortened: as §1

[17] = tested on: Eclipta prostrate; test: Composition activity test, post-emergence foliage spray; conditions: for pest or weed control at 150 g/ha: B 150 g a.i./ha; for pest or weed control at 225 g/ha: B 225 g a.i./ha
Procedure: are as follows, and the others were purchased from reagent companies. The technical materials were all dissolved in acetone and diluted with an aqueous solution containing 0.1% emulsifier Tween-80. The dilution is performed as required.
Weeds were cultivated by a pot culture method. […] Full and uniform weed seeds were selected, soaked in warm water at 25° C. for 6 hours, and germinated in a 28° C. biochemical incubator (darkness). The weed seeds that had just germinated were evenly placed on the surface of the soil and then covered with 0.5-1 cm soil according to the sizes of seeds.
The culture was carried out in a controllable sunlight greenhouse at 20 to 30° C., in natural light, and relative humidity of 57% to 72%.
3 pots with 20 weed seeds per pot were treated in one treatment with 4 replications per treatment.
The agents were used for only once in the experiment. In the stage of weeds with 1.5-2 leaves, the weeds were thinned out to maintain 10 weeds per pot and 30 weeds for each treatment, then continued to be cultured to Conyza Canadensis 10 cm in height, other weeds 3-4 leaves stage and treated.
The well-cultured weeds were evenly placed on a platform with an area of 0.5 m^2, and a solution of agents was sprayed on the stems and leaves thereof by the 3WP-2000-type walking spray tower at a dosage of 450 kg/ha and at a spray pressure of 0.3 MPa. After all the solution was sprayed, the valve was closed. After 30 seconds, the door of the spray tower was opened, and the nutritional bowl was taken out. Then the valve was opened, and the spray tube was cleaned by spraying 50 ml of water. After the treatment, the weeds were routinely cultured in a greenhouse.
A method for investigating absolute number was employed, wherein whole seedlings of survival weeds were cut off with a blade along the soil surface, and the fresh weight of the weeds was weighed with an analytical balance. For dead weeds, the fresh weight thereof was zero.
The investigation was performed after 21 days of the treatment for only once.
An optimum ratio of the two active ingredients was determined by the actual control effect, characteristics of herbicides, and balance of a corresponding formula. Wherein, in the formula, X represented the fresh weight inhibition rate of the active ingredient A in a dosage of P, and Y represented the fresh weight inhibition rate of the active ingredient B in a dosage of Q. The statistical results were shown in the table 6.

[18] = foliar, Eclipta prostrate, foliage, read-out: Control effect (%) of B applied alone (B)
[19] = Eclipta, foliar, read-out: Control effect (%) of B applied alone (B)

CCSC(=O)[C@@H](C)O/N=C/c1cc(-n2c(=O)cc(C(F)(F)F)n(C)c2=O)c(F)cc1Cl [398(R)]
Weeding effect in post-emergence stage, Setaria viridis (level) [1]: 5 (Level 5: growth control rate is above 85%)
Weeding effect in post-emergence stage, Abutilon theophrasti (level) [2]: 5 (Level 5: growth control rate is above 85%)
Weeding effect in post-emergence stage, Alopecurus japonicus (level) [3]: 5 (Level 5: growth control rate is above 85%)
Weeding effect in post-emergence stage, Digitaria sanguinalis (level) [4]: 5 (Level 5: growth control rate is above 85%)
Weeding effect in post-emergence stage, Eleusine indica (level) [5]: 5 (Level 5: growth control rate is above 85%)
plant damage level Peanut [6]: 0 (Level 0: growth control rate is less than 5%)
plant damage level Soybeans [7]: 0 (Level 0: growth control rate is less than 5%)
plant damage level Corn [8]: 0 (Level 0: growth control rate is less than 5%)
plant damage level Cotton [9]: 0 (Level 0: growth control rate is less than 5%)
activity level (growth control rate) Setaria viridis [10]: 5 (Level 5: growth control rate is above 85%)
activity level (growth control rate) Abutilon theophrasti [11]: 5 (Level 5: growth control rate is above 85%)
activity level (growth control rate) Amaranthus retroflexus [12]: 5 (Level 5: growth control rate is above 85%)
activity level (growth control rate) Descurainia sophia [13]: 5 (Level 5: growth control rate is above 85%)
activity level (growth control rate) Veronica didyma Tenore [14]: 5 (Level 5: growth control rate is above 85%)
activity level (growth control rate) Capsella bursa-pastoris [15]: 5 (Level 5: growth control rate is above 85%)
Weeding effect in post-emergence stage, Echinochloa crusgalli (level) [16]: 5 (Level 5: growth control rate is above 85%)

COC(=O)[C@@H](C)O/N=C/c1cc(-n2c(=O)c(Cl)c(C(F)(F)F)n(C)c2=O)c(F)cc1Cl [431(R)]
Weeding effect in post-emergence stage, Setaria viridis (level) [1]: 5 (Level 5: growth control rate is above 85%)
Weeding effect in post-emergence stage, Abutilon theophrasti (level) [2]: 5 (Level 5: growth control rate is above 85%)
Weeding effect in post-emergence stage, Alopecurus japonicus (level) [3]: 5 (Level 5: growth control rate is above 85%)
Weeding effect in post-emergence stage, Digitaria sanguinalis (level) [4]: 5 (Level 5: growth control rate is above 85%)
Weeding effect in post-emergence stage, Eleusine indica (level) [5]: 5 (Level 5: growth control rate is above 85%)
plant damage level Peanut [6]: 0 (Level 0: growth control rate is less than 5%)
plant damage level Soybeans [7]: 0 (Level 0: growth control rate is less than 5%)
plant damage level Corn [8]: 0 (Level 0: growth control rate is less than 5%)
plant damage level Cotton [9]: 0 (Level 0: growth control rate is less than 5%)
activity level (growth control rate) Setaria viridis [10]: 5 (Level 5: growth control rate is above 85%)
activity level (growth control rate) Abutilon theophrasti [11]: 5 (Level 5: growth control rate is above 85%)
activity level (growth control rate) Amaranthus retroflexus [12]: 5 (Level 5: growth control rate is above 85%)
activity level (growth control rate) Descurainia sophia [13]: 5 (Level 5: growth control rate is above 85%)
activity level (growth control rate) Veronica didyma Tenore [14]: 5 (Level 5: growth control rate is above 85%)
activity level (growth control rate) Capsella bursa-pastoris [15]: 5 (Level 5: growth control rate is above 85%)
Weeding effect in post-emergence stage, Echinochloa crusgalli (level) [16]: 5 (Level 5: growth control rate is above 85%)

COC(=O)[C@@H](C)O/N=C/c1cc(N2C(=O)CC(N)(C(F)(F)F)N(C)C2=O)c(F)cc1Cl (stereo partly drawn) [432(R)]
Weeding effect in post-emergence stage, Setaria viridis (level) [1]: 5 (Level 5: growth control rate is above 85%)
Weeding effect in post-emergence stage, Abutilon theophrasti (level) [2]: 5 (Level 5: growth control rate is above 85%)
Weeding effect in post-emergence stage, Alopecurus japonicus (level) [3]: 5 (Level 5: growth control rate is above 85%)
Weeding effect in post-emergence stage, Digitaria sanguinalis (level) [4]: 5 (Level 5: growth control rate is above 85%)
Weeding effect in post-emergence stage, Eleusine indica (level) [5]: 5 (Level 5: growth control rate is above 85%)
plant damage level Peanut [6]: 0 (Level 0: growth control rate is less than 5%)
plant damage level Soybeans [7]: 0 (Level 0: growth control rate is less than 5%)
plant damage level Corn [8]: 0 (Level 0: growth control rate is less than 5%)
plant damage level Cotton [9]: 0 (Level 0: growth control rate is less than 5%)
activity level (growth control rate) Setaria viridis [10]: 5 (Level 5: growth control rate is above 85%)
activity level (growth control rate) Abutilon theophrasti [11]: 5 (Level 5: growth control rate is above 85%)
activity level (growth control rate) Amaranthus retroflexus [12]: 5 (Level 5: growth control rate is above 85%)
activity level (growth control rate) Descurainia sophia [13]: 5 (Level 5: growth control rate is above 85%)
activity level (growth control rate) Veronica didyma Tenore [14]: 5 (Level 5: growth control rate is above 85%)
activity level (growth control rate) Capsella bursa-pastoris [15]: 5 (Level 5: growth control rate is above 85%)
Weeding effect in post-emergence stage, Echinochloa crusgalli (level) [16]: 5 (Level 5: growth control rate is above 85%)

COC(=O)C(C)(C)O/N=C/c1cc(-n2c(=O)cc(C(F)(F)F)n(C)c2=O)c(F)cc1Cl [Compound 433]
Weeding effect in post-emergence stage, Setaria viridis (level) [1]: 5 (Level 5: growth control rate is above 85%)
Weeding effect in post-emergence stage, Abutilon theophrasti (level) [2]: 5 (Level 5: growth control rate is above 85%)
Weeding effect in post-emergence stage, Alopecurus japonicus (level) [3]: 5 (Level 5: growth control rate is above 85%)
Weeding effect in post-emergence stage, Digitaria sanguinalis (level) [4]: 5 (Level 5: growth control rate is above 85%)
Weeding effect in post-emergence stage, Eleusine indica (level) [5]: 5 (Level 5: growth control rate is above 85%)
plant damage level Peanut [6]: 0 (Level 0: growth control rate is less than 5%)
plant damage level Soybeans [7]: 0 (Level 0: growth control rate is less than 5%)
plant damage level Corn [8]: 0 (Level 0: growth control rate is less than 5%)
plant damage level Cotton [9]: 0 (Level 0: growth control rate is less than 5%)
activity level (growth control rate) Setaria viridis [10]: 5 (Level 5: growth control rate is above 85%)
activity level (growth control rate) Abutilon theophrasti [11]: 5 (Level 5: growth control rate is above 85%)
activity level (growth control rate) Amaranthus retroflexus [12]: 5 (Level 5: growth control rate is above 85%)
activity level (growth control rate) Descurainia sophia [13]: 5 (Level 5: growth control rate is above 85%)
activity level (growth control rate) Veronica didyma Tenore [14]: 5 (Level 5: growth control rate is above 85%)
activity level (growth control rate) Capsella bursa-pastoris [15]: 5 (Level 5: growth control rate is above 85%)
Weeding effect in post-emergence stage, Echinochloa crusgalli (level) [16]: 5 (Level 5: growth control rate is above 85%)

CC(C)c1nn(C(=O)NC(C)(C)C)c(=O)n1N [amicarbazone]
Control effect (%) of B applied alone (B) ([17]; Eclipta prostrate, foliage, B 60 g a.i./ha): 43.7%

CC(C)N1C(=O)c2ccccc2NS1(=O)=O [bentazone]
pest or weed control at 150 g/ha [17, 18]: 30.2%

CCC(C)n1c(=O)[nH]c(C)c(Br)c1=O (stereo not drawn) [bromacil]
pest or weed control at 450 g/ha [17, 19]: 28.4%

N#Cc1cc(Br)c(O)c(Br)c1 [bromoxynil]
pest or weed control at 60 g/ha ([17]; foliar, Eclipta prostrate, foliage, B 60 g a.i./ha, read-out: Control effect (%) of B applied alone (B)): 41.2%

Cc1ccc(NC(=O)N(C)C)cc1Cl [chlorotoluron]
pest or weed control at 225 g/ha [17, 18]: 24.5%

CCOC(=O)Nc1cccc(OC(=O)Nc2ccccc2)c1 [desmedipham]
pest or weed control at 300 g/ha [17, 19]: 16.2%

CC(C)c1ccc(NC(=O)N(C)C)cc1 [isoproturon]
pest or weed control at 225 g/ha [17, 18]: 33.9%

CSc1nnc(C(C)(C)C)c(=O)n1N [metribuzin]
pest or weed control at 15 g/ha ([17]; foliar, Eclipta prostrate, foliage, B 15 g a.i./ha, read-out: Control effect (%) of B applied alone (B)): 36.3%

COC(=O)Nc1cccc(OC(=O)Nc2cccc(C)c2)c1 [phenmedipham]
pest or weed control at 300 g/ha [17, 19]: 20.8%

CCC(=O)Nc1ccc(Cl)c(Cl)c1 [propanil]
pest or weed control at 300 g/ha ([17]; foliar, Eclipta prostrate, foliage, B 300 g a.i./ha, read-out: Control effect (%) of B applied alone (B)): 21.7%

CCNc1nc(Cl)nc(NC(C)(C)C)n1 [terbuthylazine]
pest or weed control at 150 g/ha [17, 18]: 31.7%
